Results published in PubChem BioAssay AID1963838 (Molecular Pharmacology Branch, DTP, NCI, 2024).
Values joined by “and” are separate entries in the source; they are usually repeats but may differ in a detail not shown here. Equal values may be shown once.

Tested on: 855422-203-R-J1-PDC complex spheroid viability
Experiment: Anticancer human tumor 855422-203-R-J1-PDC patient-derived bladder carcinoma cell line growth inhibition [POLQ]
Details: for viability, T/C: stronger effect = lower value
Experimental: Multicellular complex tumor spheroid response to Polymerase (POL) inhibitors (novobiocin, ART-558, RP6685) in combination with a variety of drugs and investigational agents in selected tumor cell lines
The POL inhibitors (novobiocin, ART-558, and RP6685) were evaluated both individually and in combination with standard of care and investigational anticancer small molecules within a complex spheroid model of solid tumors. . Complex spheroids include a stromal component modeled by human endothelial cells (HUVEC) and fibroblasts modeled by human mesenchymal stem cells (MSCs). The concentration ranges selected for each drug and investigational agent were based upon clinically achievable concentrations if the clinical Cmax of the agent was known.
Compounds. The drugs and investigational agents: novobiocin (NSC847541), ART-558 (NSC835418), RP-6685 (NSC848927), peposertib (NSC802822), ceralasertib (NSC780249), elimusertib (NSC800525), camonsertib (NSC841442), AZD-1390 (NSC803789), olaparib (NSC753686), talazoparib (NSC767125), rucaparib (NSC756644), sotorasib (NSC818433), MRTX-1133 (NSC836407), SN-38 (NSC673596), topotecan (NSC609699), epotoside (NSC141540), doxorubicin (NSC123127), gemcitabine (NSC613327), 5-fluorouracil (NSC19893), paclitaxel (NSC125973), vemurafenib (NSC761431), MSA-2 (NSC828583), SN-011 (NSC837082), adavosertib (NSC754352), prexasertib (NSC758257), carboplatin (NSC241240) and oxaliplatin (NSC266046), were obtained from the National Cancer Institute (NCI) Developmental Therapeutics Program Chemical Repository (21). The FDA-approved anticancer drug set is available from the Developmental Therapeutics Program at https://dtp.cancer.gov/organization/dscb/obtaining/. […] The stock solutions were prepared in dimethyl sulfoxide (DMSO, Sigma-Aldrich, St. Louis, MO, cat. D2650), except for the platinum compounds which were prepared in saline (Quality Biological, Gaithersburg, MD, cat. 114-055-101), at 800-fold the tested concentration and stored at -70 degrees C prior to their use. All drugs and investigational agents were tested over a range starting from a high concentration at or near the clinical Cmax and decreasing in half-log increments. If the clinical Cmax for an agent had not been determined, the highest concentration tested was 10 microM, except for SN-38, which was tested at a high concentration of 1 microM.
Cell Culture. All cells were maintained in an incubator at 37 degrees C and 5% CO2 with 95% humidity. The PDC lines were cultured according to standard operating procedures established by the NCI PDMR (https://pdmr.cancer.gov). Table 3 of the manuscript, lists the cell lines along with the number of the three cell types plated to form the mct-spheroids and media for tumor cell growth. After thawing, all PDC lines, except 997537-175-T-J1-PDC and 415267-285-R-J2-PDC, were cultured in Matrigel-coated flasks prepared with a working solution of 1X Ham's F-12 nutrient mix, without supplementation (Thermo Fisher Scientific, cat. 11765054), 100 U/mL penicillin-streptomycin (Thermo Fisher Scientific, cat. 15140122), and 2.5% Matrigel (Corning Inc., Corning, NY, cat. 354248) for the first three passages. The two PDC lines 997537-175-T-J1-PDC and 415267-285-R-J2-PDC were cultured on uncoated flasks. The 857933-349-R-J2-PDC line was cultured in 6C/Colon 1B media containing advanced DMEM/F-12 (Thermo Fisher Scientific, cat. 12634028), 10 mM HEPES (Thermo Fisher Scientific, cat. 15630080), 1X GlutaMAX supplement (Thermo Fisher Scientific, cat. 35050061), 0.1 mg/mL primocin (InvivoGen, San Diego, CA, cat. ant-pm-2), 10% defined fetal bovine serum, heat inactivated (HyClone Laboratories Inc., Logan, UT, cat. SH30070.03HI), 50% L-WRN conditioned media (ATCC, cat. CRL-3276), 1.25 mM N-Acetyl-L-cysteine (Sigma-Aldrich, cat. A9165), 10 mM nicotinamide (Sigma-Aldrich, cat. N0636), 1X B-27 supplement (Thermo Fisher Scientific, cat. 17504044), 1X N-2 supplement (Thermo Fisher Scientific, cat. […]

[1] = compound alone, run of 01/08/2024
[2] = compound alone, run of 01/19/2024
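Note: spheroids exposed to compounds for seven days before readout.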

| SMILES | viability, T/C (compound 0.0316 µM) | viability, T/C (compound 0.1 µM) | viability, T/C (compound 0.316 µM) | viability, T/C (compound 1 µM) | viability, T/C (compound 3.16 µM) | viability, T/C (compound 10 µM) | IC50 (curve of compound) | IC50 [1] [nM] | viability, T/C (compound 0.00316 µM) | viability, T/C (compound 0.01 µM) | IC50 [2] [nM] | viability, T/C (compound 0.000316 µM) | viability, T/C (compound 0.001 µM) |
| --- | --- | --- | --- | --- | --- | --- | --- | --- | --- | --- | --- | --- | --- |
| CNCc1ccc(-c2[nH]c3cc(F)cc4c3c2CCNC4=O)cc1 | 98.8% and 101% and 112% | 98.1% and 100% and 101% | 114% and 108% and 99.2% | 115% and 103% and 99.8% | 105% and 88.8% and 114% | 114% and 137% and 126% | > 10000 nM | – | – | – | – | – | – |
| COC1C(OC(N)=O)C(O)C(Oc2ccc3c(O)c(NC(=O)c4ccc(O)c(CC=C(C)C)c4)c(=O)oc3c2C)OC1(C)C (stereo unspecified) | 105% [middle of 13 runs] | 108% [middle of 13 runs] | 111% [middle of 13 runs] | 106% [middle of 13 runs] | 104% [middle of 13 runs] | – | – | > 10000 | – | – | – | – | – |
| COc1cc(C2c3cc4c(cc3C(OC3OC5COC(C)OC5C(O)C3O)C3COC(=O)C23)OCO4)cc(OC)c1O (stereo unspecified) | 99.8% and 116% and 97.3% | 92.7% and 114% and 91% | 31.5% and 78.4% and 34% | 9.39% and 19.9% and 12.1% | 7.03% and 8.72% and 9.59% | 4.41% and 6.81% and 5.26% | 224 nM and 553 nM and 229 nM | – | – | – | – | – | – |
| COc1cc2cc(C(=O)CCC(=O)O)sc2cc1OC | 93.5% and 102% and 106% | 128% and 88.2% and 104% | 98.3% and 108% and 107% | 97.8% and 87.2% and 98.9% | 111% (2×) and 106% | 112% and 119% and 102% | > 10000 nM | – | – | – | – | – | – |
| COc1ccc([C@@H](O)c2cc(-c3ncnc4cc(N5CCOCC5)ccc34)c(F)cc2Cl)nn1 | 86.6% and 104% and 118% | 103% and 107% and 96.5% | 94.5% and 103% and 109% | 87.2% and 91.5% and 88.8% | 60.9% and 109% and 69.5% | 32% and 58.2% and 37.4% | 4870 nM and > 10000 nM and 6350 nM | – | – | – | – | – | – |
| COc1cccc(OCCCN)c1-c1cc(Nc2cnc(C#N)cn2)n[nH]1 | 12.2% and 23.8% and 37.9% | 9.96% and 13.6% and 17.5% | 5.57% and 7.75% and 6.55% | 4.87% and 6.23% and 5.82% | – | – | 17.7 nM and 23 nM and 26.6 nM | – | 108% and 98.1% and 104% | 86.8% and 138% and 132% | – | – | – |
| COc1cccc2c1C(=O)c1c(O)c3c(c(O)c1C2=O)CC(O)(C(=O)CO)CC3OC1CC(N)C(O)C(C)O1 (stereo unspecified) | 20.9% and 28.2% and 13.1% | 9.22% and 14.2% and 10.2% | 3.11% and 2.95% and 2.47% | 0.45% and 0.73% and 0.38% | 0.69% and 0.96% and 0.43% | 3.06% and 2.86% and 1.27% | < 31.6 nM | – | – | – | – | – | – |
| Cc1cccc(N(C)C(=O)C2C(O)CCN2c2nc(C)cc(C(F)(F)F)c2C#N)c1 (stereo unspecified) | 107% [middle of 13 runs] | – | 106% [middle of 13 runs] | 102% [middle of 13 runs] | 102% [middle of 13 runs] | 103% [middle of 13 runs] | – | > 10000 | – | – | > 10000 | – | – |
| Cn1ncnc1[C@H]1c2n[nH]c(=O)c3cc(F)cc(c23)N[C@@H]1c1ccc(F)cc1 | 102% and 93.4% and 118% | 96.6% and 134% and 88.6% | – | – | – | – | > 100 nM | – | 108% and 105% and 111% | 108% and 122% and 110% | – | 108% and 99.8% and 105% | 97% and 116% and 97.1% |
| Nc1ccc(C#CCN(C(=O)Cc2ncc(C(F)(F)F)cc2C(F)(F)F)c2ccc(F)cc2)nn1 | 101% [middle of 13 runs] | 104% [middle of 13 runs] | 107% [middle of 13 runs] | – | 95.7% [middle of 13 runs] | 90.4% [middle of 13 runs] | – | – | – | – | > 10000 | – | – |
| Nc1ccn(C2OC(CO)C(O)C2(F)F)c(=O)n1 (stereo unspecified) | 81.1% and 75.1% and 69.6% | 41.7% and 19.3% and 37.9% | 17.7% and 14.3% and 12.9% | 13.3% and 13.5% and 11.3% | 7.69% and 9.12% and 7.82% | 6.31% and 7.6% and 6.51% | 77.7 nM and 53.1 nM and 64.2 nM | – | – | – | – | – | – |
| O=C(Nc1ccc(O)c(NS(=O)(=O)c2ccc(F)cc2)c1)c1ccc(-c2ccccc2)cc1 | 106% and 92.6% and 110% | 118% and 99.2% and 113% | 98.8% and 110% and 113% | 112% and 108% and 97.7% | 99.4% and 106% and 92.8% | 74% and 70.5% and 45.6% | > 10000 nM and 9080 nM | – | – | – | – | – | – |
| O=C(c1cc(Cc2n[nH]c(=O)c3ccccc23)ccc1F)N1CCN(C(=O)C2CC2)CC1 | 109% and 103% and 94% | 107% and 106% and 112% | 92.1% and 100% and 112% | 108% and 103% and 98.3% | 106% and 98.1% and 124% | 82.5% and 70% and 121% | > 10000 nM | – | – | – | – | – | – |
| O=c1[nH]cc(F)c(=O)[nH]1 | 116% and 95.4% and 99.2% | 105% and 104% and 102% | 61.8% and 118% and 55.4% | 32.8% and 67% and 34.3% | 29.6% and 40.2% and 26.3% | 23.3% and 44.2% and 22.9% | 507 nM and 2200 nM and 405 nM | – | – | – | – | – | – |
